Measured values: article PMC4912077 (PLoS ONE, 2016)
Values joined by “and” are separate entries in the source; they are usually repeats but may differ in a detail not shown here. Equal values may be shown once. Where a name gives a salt, the structure may show the parent alone.

Assays:
NMDAR [1] = settings: [3H]-MK-801, rat cortex and hippocampus membranes; read-out: NMDAR affinity; cited from earlier work
[2] = test system: PCP site within the NMDAR channel; experiment: NMDAR binding, [3H]-MK-801 displacement in rat forebrain homogenate; settings: for [3H]-MK-801 binding counts (Count1-3): raw counts, three counts; for Ki: read-out: Ki ± SEM, [3H]-(+)-MK-801, rat forebrain, Cheng-Prusoff;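 on all read-outs here: IC50 by nonlinear regression of percent specific binding versus log concentration, Ki from IC50 via Cheng-Prusoff, raw counts in CPM, duplicates repeated at least three times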
[3] = test system: PCP site within the NMDAR channel;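 further: IC50 by nonlinear regression of percent specific binding versus log concentration, Ki from IC50 via Cheng-Prusoff, raw counts in CPM, duplicates repeated at least three times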
NMDA receptor = experiment: NMDA receptor-mediated fEPSP (NMDAR-fEPSP) in CA1 of hippocampal slices; type: cell-based, rat; settings: 10 μM
Description: Male Wistar rats (Crl:Wi; Charles River, UK) aged 9–10 wk were sacrificed by neck vertebral dislocation (schedule 1 method) according to the United Kingdom (Scientific Procedures) Act of 1986. […] The brain was cut parasagittally into 400 μm sections and hippocampal slices were removed, stored and placed in a submerged recording chamber at 28–30°C. Recordings of synaptic activity were made, analyzed and presented as described. A bipolar electrode was used to deliver stimuli (0.03 Hz) to the Schaffer collateral pathway to enable recording of field excitatory synaptic potentials (fEPSPs) using a glass microelectrode positioned in the stratum radiatum of area CA1. […] After 30 min of stable control responses, 1 and 10 μM solutions of the individual compounds were added to the perfusate for 3–12 h while recording the amplitude and area of the NMDAR-fEPSP on-line using WinLTP [31]. Single exponential curves were fitted to the graphs and curves extrapolated to show likely half-times and minimum plateau responses achieved with each concentration of the compounds. Raw data for all fEPSP experiments are provided as supporting information (S2, S3 and S4 Files).

Sigma 2 = target: T1, Sigma 2 (Rattus norvegicus, UniProt Q5U3Y7); experiment: NIMH PDSP radioligand binding, Sigma 2
T1 sequence (Q5U3Y7 1-176): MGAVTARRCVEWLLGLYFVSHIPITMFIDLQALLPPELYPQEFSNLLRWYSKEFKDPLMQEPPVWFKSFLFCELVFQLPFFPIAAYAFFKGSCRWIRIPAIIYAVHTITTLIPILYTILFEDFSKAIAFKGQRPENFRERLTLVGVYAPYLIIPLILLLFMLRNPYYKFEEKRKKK
Description: (§1) Radioligands and concentrations used for additional 45 CNS receptor binding assays are listed as supporting information (S1 Table). This work was performed by the National Institute of Mental Health Psychoactive Drug Screening Program (NIMH PDSP) as described previously.[26] Briefly target compounds were dissolved in DMSO and subjected to a primary screen at 10,000 nM concentration. […] Additional experimental details are available in the NIMH PDSP assay protocol book.

M5 = M5 (Homo sapiens, UniProt P08912); experiment: NIMH PDSP radioligand binding, M5
NMDAR [4] = test system: NMDAR; design: method as in earlier work; settings: [3H]-TCP; cited from earlier work
Alpha2C = target: T2, Alpha2C (Homo sapiens, UniProt P18825); experiment: NIMH PDSP radioligand binding, Alpha2C
T2 sequence (P18825 1-462): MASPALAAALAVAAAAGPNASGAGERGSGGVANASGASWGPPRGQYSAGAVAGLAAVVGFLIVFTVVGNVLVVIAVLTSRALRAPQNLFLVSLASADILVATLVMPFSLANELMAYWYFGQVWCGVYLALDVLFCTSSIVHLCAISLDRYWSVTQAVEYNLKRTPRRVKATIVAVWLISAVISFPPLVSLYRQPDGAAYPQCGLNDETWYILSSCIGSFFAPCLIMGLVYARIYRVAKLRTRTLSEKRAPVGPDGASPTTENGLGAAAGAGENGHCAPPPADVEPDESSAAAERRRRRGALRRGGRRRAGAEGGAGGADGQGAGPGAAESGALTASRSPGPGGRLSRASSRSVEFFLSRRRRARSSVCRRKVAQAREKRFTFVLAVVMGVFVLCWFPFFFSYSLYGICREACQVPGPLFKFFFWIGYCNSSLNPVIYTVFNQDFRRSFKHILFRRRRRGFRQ
Description: as §1

M2 = M2 (Homo sapiens, UniProt P08172); experiment: NIMH PDSP radioligand binding, M2
M3 = M3 (Homo sapiens, UniProt P20309); experiment: NIMH PDSP radioligand binding, M3
M4 = M4 (Homo sapiens, UniProt P08173); experiment: NIMH PDSP radioligand binding, M4
Alpha2A = Alpha2A (Homo sapiens, UniProt P08913); experiment: NIMH PDSP radioligand binding, Alpha2A
Description: as §1

NET [5] = target: T3, NET (Homo sapiens, UniProt P23975); experiment: Monoamine reuptake inhibition assay, NET in HEK293 cells; type: cell-based; design: expressed in transfected cells; host or cells: HEK293; settings: for Hill slope NET reuptake inhibition: HEK293 cells
Description: (§2) Monoamine reuptake inhibition assays were performed via the NIMH PDSP as previously described.[28] In brief, the neurotransmitter transporter uptake assay kit (R8174) (Molecular Devices) was used. Human monoamine transporters (DAT, NET and SERT) were stably expressed in HEK293 cells. Assay buffer consisted of 20 mM HEPES, 1x HBSS at pH 7.4. Cells were plated in Pol-L-Lys (PLL) coated 384-well black clear bottom cell culture plates with a density of 15,000 cells/well. Cells were incubated for at least 6 h prior to assay. Media was removed and replaced with 20 μL assay buffer and 5 μL of drug or positive control (cocaine or nisoxetine) as a 5X stock. Cells were incubated for 30 min at 37°C. 25 μL of dye solution was then added and following an additional 30 min incubation (at 37°C) fluorescence intensity was measured using a FlexStation II (bottom read mode, excitation wavelength = […], emission = 520 nM with a cutoff of 510 nM). […] Additional details are available in the NIMH PDSP assay protocol book.

DAT [6] = target: T4, DAT (Homo sapiens, UniProt Q01959); experiment: NIMH PDSP radioligand binding, DAT
Description: as §1

DAT [7] = target: T4, DAT; experiment: Monoamine reuptake inhibition assay, DAT in HEK293 cells; type: cell-based; design: expressed in transfected cells; host or cells: HEK293; settings: for Hill slope DAT reuptake inhibition: HEK293 cells
Description: as §2

M1 = M1 (Homo sapiens, UniProt P11229); experiment: NIMH PDSP radioligand binding, M1
MOR = MOR (Homo sapiens, UniProt P35372); experiment: NIMH PDSP radioligand binding, MOR
Description: as §1

Human SERT = target: T5, Human SERT (Homo sapiens, UniProt P31645); experiment: Monoamine reuptake inhibition assay, SERT in HEK293 cells; type: cell-based
T5 construct: expressed in transfected cells; host or cells: HEK293
Description: as §2

KOR = KOR (Homo sapiens, UniProt P41145); experiment: NIMH PDSP radioligand binding, KOR
Description: as §1

H3 = H3 (Homo sapiens, UniProt Q9Y5N1); experiment: NIMH PDSP radioligand binding, H3
Description: as §1

H1 = H1 (Homo sapiens, UniProt P35367); experiment: NIMH PDSP radioligand binding, H1
Description: as §1

NET [8] = target: T3, NET; experiment: NIMH PDSP radioligand binding, NET
Description: as §1

T4 sequence (Q01959 whole entry): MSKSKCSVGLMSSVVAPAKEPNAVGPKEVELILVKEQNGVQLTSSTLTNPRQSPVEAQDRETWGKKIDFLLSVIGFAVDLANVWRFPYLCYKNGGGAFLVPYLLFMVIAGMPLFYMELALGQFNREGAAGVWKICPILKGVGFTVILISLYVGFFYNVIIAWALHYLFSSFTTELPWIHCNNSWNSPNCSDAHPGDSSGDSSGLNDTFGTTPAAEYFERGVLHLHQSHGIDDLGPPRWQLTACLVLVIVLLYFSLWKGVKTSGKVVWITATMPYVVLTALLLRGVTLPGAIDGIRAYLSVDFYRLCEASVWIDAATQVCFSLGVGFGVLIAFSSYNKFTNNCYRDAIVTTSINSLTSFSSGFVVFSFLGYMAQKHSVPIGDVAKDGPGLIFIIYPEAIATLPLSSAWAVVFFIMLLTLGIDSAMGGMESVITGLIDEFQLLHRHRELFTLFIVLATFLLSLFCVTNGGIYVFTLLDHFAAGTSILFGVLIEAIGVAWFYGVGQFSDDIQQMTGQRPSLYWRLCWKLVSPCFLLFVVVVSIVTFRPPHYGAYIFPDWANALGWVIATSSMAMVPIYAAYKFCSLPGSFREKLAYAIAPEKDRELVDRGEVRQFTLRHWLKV
M3, sequence (P20309 whole entry): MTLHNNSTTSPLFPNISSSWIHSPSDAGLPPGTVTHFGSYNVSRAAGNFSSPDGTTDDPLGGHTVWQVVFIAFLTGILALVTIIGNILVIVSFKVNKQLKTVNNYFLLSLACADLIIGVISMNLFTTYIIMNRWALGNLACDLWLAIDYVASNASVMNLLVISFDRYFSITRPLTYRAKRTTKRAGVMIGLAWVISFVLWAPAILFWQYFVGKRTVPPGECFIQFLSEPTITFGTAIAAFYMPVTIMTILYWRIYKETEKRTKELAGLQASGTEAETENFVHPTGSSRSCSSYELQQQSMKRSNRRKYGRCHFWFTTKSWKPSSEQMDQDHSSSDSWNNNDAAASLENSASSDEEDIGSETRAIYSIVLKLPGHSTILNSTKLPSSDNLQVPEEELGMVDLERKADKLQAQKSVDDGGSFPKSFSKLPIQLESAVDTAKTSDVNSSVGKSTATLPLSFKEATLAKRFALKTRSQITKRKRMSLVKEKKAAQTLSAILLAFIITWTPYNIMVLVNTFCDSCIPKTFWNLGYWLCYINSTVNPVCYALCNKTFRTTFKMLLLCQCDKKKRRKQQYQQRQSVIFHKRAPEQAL
M5, sequence (P08912 whole entry): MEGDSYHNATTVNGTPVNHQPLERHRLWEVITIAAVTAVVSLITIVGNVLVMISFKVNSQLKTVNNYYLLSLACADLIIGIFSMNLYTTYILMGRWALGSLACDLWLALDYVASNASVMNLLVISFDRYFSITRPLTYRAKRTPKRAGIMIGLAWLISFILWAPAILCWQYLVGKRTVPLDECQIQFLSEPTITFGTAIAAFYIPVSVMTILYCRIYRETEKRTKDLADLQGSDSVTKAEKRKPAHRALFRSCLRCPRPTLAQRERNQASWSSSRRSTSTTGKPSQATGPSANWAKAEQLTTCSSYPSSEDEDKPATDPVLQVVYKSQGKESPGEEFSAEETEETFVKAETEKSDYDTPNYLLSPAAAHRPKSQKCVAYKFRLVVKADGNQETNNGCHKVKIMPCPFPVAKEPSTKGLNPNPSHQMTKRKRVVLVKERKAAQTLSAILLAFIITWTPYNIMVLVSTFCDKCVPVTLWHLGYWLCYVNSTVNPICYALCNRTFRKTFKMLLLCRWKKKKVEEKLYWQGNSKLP
M1, sequence (P11229 whole entry): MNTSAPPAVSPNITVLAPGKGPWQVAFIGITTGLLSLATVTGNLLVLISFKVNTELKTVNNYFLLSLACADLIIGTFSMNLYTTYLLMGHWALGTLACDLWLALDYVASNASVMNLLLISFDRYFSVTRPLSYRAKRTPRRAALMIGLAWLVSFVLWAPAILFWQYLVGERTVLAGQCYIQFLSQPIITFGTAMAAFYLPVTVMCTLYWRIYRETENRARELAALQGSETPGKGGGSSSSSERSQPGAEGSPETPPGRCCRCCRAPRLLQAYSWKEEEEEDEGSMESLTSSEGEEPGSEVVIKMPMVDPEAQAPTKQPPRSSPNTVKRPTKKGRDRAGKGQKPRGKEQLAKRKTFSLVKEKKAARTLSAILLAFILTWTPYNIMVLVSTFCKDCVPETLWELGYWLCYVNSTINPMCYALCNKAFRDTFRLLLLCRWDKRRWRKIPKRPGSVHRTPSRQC
T5 sequence (P31645 whole entry): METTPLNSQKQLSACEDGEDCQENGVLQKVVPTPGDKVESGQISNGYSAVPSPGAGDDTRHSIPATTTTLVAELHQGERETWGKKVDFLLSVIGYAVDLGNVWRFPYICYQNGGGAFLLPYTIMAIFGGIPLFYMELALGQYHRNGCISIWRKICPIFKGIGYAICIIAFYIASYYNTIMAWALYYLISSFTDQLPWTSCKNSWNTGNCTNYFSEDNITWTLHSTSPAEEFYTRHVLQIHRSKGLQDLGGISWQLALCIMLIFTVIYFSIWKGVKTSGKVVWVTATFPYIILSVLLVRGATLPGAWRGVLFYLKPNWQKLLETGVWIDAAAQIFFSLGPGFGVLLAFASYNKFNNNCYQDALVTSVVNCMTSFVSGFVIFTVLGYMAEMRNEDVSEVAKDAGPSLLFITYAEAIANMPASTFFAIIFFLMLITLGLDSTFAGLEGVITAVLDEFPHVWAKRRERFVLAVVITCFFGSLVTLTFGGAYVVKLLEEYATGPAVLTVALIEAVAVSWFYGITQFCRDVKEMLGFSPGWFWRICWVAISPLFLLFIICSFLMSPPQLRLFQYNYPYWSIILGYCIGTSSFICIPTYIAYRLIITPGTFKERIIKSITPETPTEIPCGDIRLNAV
T3 sequence (P23975 whole entry): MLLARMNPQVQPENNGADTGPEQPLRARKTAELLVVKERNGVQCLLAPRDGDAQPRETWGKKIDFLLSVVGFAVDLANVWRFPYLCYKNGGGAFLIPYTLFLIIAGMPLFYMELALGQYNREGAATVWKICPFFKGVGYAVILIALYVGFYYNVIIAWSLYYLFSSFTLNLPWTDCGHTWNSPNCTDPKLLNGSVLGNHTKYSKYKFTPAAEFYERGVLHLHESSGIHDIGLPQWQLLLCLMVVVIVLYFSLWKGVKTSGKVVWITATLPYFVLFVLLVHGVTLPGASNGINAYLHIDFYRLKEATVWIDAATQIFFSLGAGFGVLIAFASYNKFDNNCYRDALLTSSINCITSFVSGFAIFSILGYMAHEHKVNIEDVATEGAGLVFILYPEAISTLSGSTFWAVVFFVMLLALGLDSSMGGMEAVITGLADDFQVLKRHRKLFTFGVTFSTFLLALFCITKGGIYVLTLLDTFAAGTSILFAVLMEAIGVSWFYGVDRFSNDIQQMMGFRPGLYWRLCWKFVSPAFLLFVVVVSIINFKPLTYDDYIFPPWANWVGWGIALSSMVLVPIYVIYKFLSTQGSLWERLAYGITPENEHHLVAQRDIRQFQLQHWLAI
M2, sequence (P08172 whole entry): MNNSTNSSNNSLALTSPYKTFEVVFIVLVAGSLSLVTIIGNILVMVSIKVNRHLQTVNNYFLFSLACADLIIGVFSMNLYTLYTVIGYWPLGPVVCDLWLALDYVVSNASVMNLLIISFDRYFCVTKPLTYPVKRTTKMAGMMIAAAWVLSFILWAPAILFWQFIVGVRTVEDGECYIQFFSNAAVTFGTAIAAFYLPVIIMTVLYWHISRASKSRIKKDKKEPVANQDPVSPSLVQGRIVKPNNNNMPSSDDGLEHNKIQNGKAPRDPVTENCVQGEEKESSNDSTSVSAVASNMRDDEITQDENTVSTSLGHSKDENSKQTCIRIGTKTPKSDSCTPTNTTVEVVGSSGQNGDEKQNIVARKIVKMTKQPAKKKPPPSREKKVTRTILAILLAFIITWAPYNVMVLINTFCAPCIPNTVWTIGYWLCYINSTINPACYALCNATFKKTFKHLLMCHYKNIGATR
KOR, sequence (P41145 whole entry): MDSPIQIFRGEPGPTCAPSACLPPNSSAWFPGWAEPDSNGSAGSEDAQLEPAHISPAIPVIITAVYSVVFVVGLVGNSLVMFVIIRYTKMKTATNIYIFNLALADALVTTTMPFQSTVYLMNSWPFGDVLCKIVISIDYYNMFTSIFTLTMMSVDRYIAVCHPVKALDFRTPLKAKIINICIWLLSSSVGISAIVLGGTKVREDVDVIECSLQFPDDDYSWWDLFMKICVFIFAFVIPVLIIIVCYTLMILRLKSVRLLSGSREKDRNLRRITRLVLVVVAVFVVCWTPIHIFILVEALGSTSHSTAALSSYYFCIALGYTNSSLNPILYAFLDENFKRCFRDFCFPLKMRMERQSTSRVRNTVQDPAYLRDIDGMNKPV
H1, sequence (P35367 whole entry): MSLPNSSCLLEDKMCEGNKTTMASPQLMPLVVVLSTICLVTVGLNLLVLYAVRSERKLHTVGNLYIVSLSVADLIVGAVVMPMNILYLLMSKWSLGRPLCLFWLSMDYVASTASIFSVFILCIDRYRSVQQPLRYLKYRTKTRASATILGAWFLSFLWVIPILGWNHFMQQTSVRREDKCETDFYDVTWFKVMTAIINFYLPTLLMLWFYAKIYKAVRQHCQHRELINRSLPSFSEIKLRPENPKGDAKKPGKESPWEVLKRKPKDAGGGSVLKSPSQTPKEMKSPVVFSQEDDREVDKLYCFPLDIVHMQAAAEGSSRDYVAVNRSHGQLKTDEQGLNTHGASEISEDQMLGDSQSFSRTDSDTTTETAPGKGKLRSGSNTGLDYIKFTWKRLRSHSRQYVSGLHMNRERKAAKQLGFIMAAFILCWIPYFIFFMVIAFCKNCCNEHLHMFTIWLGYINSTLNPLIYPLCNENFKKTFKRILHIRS

| Structure (SMILES) | Ki [2] | IC50 [3] | Ki (Sigma 2) | Ki (M5) | Ki (M2) | Ki (M3) | IC50 (NET [5]) | Hill slope NET reuptake inhibition (NET [5]) | Ki (DAT [6]) | IC50 (DAT [7]) | Hill slope DAT reuptake inhibition (DAT [7]) | Ki (M1) | IC50 (Human SERT) | other results |
| --- | --- | --- | --- | --- | --- | --- | --- | --- | --- | --- | --- | --- | --- | --- |
| c1ccc(C[C@@H](c2ccccc2)N2CCCCC2)cc1 [(S-)-DPH] | – | – | – | – | – | – | – | – | – | – | – | – | – | Ki (NMDAR [1]): 120 nM |
| CC12CC3CC(C)(C1)CC(N)(C3)C2 [Memantine, memantine hydrochloride] | 378 ± 26.3 nM | 594 ± 41.3 nM | – | – | – | – | – | – | – | – | – | – | – | [3H]-MK-801 binding counts (Count1-3) ([2]; Assay 6, memantine concentration 1.00E-04): 54.75 and 56.13 and 57.01; [3H]-MK-801 binding counts (Count1-3) ([2]; Assay 6, memantine concentration 1.00E-05): 80 and 85.76 and 84.26; [3H]-MK-801 binding counts (Count1-3) ([2]; Assay 6, memantine concentration 1.00E-06): 302 and 309.15 and 302.79; [3H]-MK-801 binding counts (Count1-3) ([2]; Assay 6, memantine concentration 1.00E-07): 630.88 and 668.92 and 629.83; [3H]-MK-801 binding counts (Count1-3) ([2]; Assay 6, memantine concentration 1.00E-08): 740.13 and 745.68 and 749.23; [3H]-MK-801 binding counts (Count1-3) ([2]; Assay 6, memantine concentration 1.00E-09): 755.01 and 781.68 and 787.36; [3H]-MK-801 binding counts (Count1-3) ([2]; Assay 6, memantine concentration 1.00E-10): 758.88 and 769.56 and 771.23; [3H]-MK-801 binding counts (Count1-3) ([2]; Assay 6 duplicate, memantine concentration 1.00E-04): 49.38 and 49.13 and 46.88; [3H]-MK-801 binding counts (Count1-3) ([2]; Assay 6 duplicate, memantine concentration 1.00E-05): 91.38 and 89.51 and 86.76; [3H]-MK-801 binding counts (Count1-3) ([2]; Assay 6 duplicate, memantine concentration 1.00E-06): 307.63 and 313.65 and 307.54; [3H]-MK-801 binding counts (Count1-3) ([2]; Assay 6 duplicate, memantine concentration 1.00E-07): 637.88 and 639.55 and 638.34; [3H]-MK-801 binding counts (Count1-3) ([2]; Assay 6 duplicate, memantine concentration 1.00E-08): 730.14 and 762.94 and 750.86; [3H]-MK-801 binding counts (Count1-3) ([2]; Assay 6 duplicate, memantine concentration 1.00E-09): 757.26 and 761.06 and 761.99; [3H]-MK-801 binding counts (Count1-3) ([2]; Assay 6 duplicate, memantine concentration 1.00E-10): 762.51 and 773.44 and 773.61 |
| CNC1(c2ccccc2Cl)CCCCC1=O (centres unmarked) [Ketamine, ketamine, reference compound] | 324 ± 19.2 nM | 508 ± 30.1 nM | – | – | – | – | – | – | – | – | – | – | – | – |
| NC(CCCP(=O)(O)O)C(=O)O [D-AP5, reference compound] | – | – | – | – | – | – | – | – | – | – | – | – | – | small persistent deflection remaining of the NMDAR-fEPSP (NMDA receptor): < 20% |
| Clc1ccccc1C(Cc1ccccc1)N1CCCCC1 (centres unmarked) [2-Cl-DPH, 2-Cl-diphenidine] | 9.3 ± 1.3 nM | 14.6 ± 2.1 nM | 474 nM | 291 nM | 910 nM | 615 nM | 27100 nM | 1.02 | 357 nM | 10500 nM | 0.65 | 278 nM | > 10000 nM | NMDAR affinity (NMDAR [4]): pM affinity; Ki (Alpha2C): 1820 nM; Ki (M4): 828 nM; Ki (Alpha2A): 2690 nM; affinities at muscarinic sites relative to NMDAR (M1; less than for NMDAR): 30 fold; Ki (MOR): 2060 nM; Ki (KOR): 642 nM |
| COc1ccc(C(Cc2ccccc2)N2CCCCC2)cc1 (centres unmarked) [4-MXP, 4-methoxy-diphenidine] | 461 ± 44.5 nM | 724 ± 69.9 nM | 564 nM | 2760 nM | 1620 nM | 2400 nM | 22500 nM | 1.75 | 157 nM | 2230 nM | 0.96 | 2430 nM | 19000 nM | Ki (H3): 556 nM; Ki (H1): 4530 nM; Ki (NET [8]): 2700 nM; Ki (Alpha2C): 2510 nM; affinity at DAT relative to NMDAR (DAT [6]; higher at DAT): ~ 2.5 fold; Hill slope SERT reuptake inhibition (Human SERT; HEK293 cells): 1.12 |
| c1ccc(C[C@H](c2ccccc2)N2CCCCC2)cc1 [(R)-DPH] | – | – | – | – | – | – | – | – | – | – | – | – | – | Ki (NMDAR [1]): 5250 nM |
| COc1cccc(C(Cc2ccccc2)N2CCCCC2)c1 (centres unmarked) [3-MXP, 3-methoxy-diphenidine] | 19.3 ± 1.7 nM | 30.3 ± 2.6 nM | 633 nM | 1120 nM | 2970 nM | 2300 nM | 2710 nM | 0.95 | 88 nM | 587 nM | 0.92 | 2400 nM | > 10000 nM | Ki (H3): 1470 nM; Ki (H1): 2030 nM; Ki (NET [8]): 325 nM; Ki (KOR): 2260 nM |
